Key:
Assay in all cases: Kinase inhibitory activity profiling of RI-962@10 µM (406 kinases, Eurofins)
Type in all cases: biochemical
[1] = target: panel of human kinases (kinase named in endpoint) (Homo sapiens, UniProt O00141); conditions: 10 µM; read-out: Activity (%), SGK(h)
Method in brief: (§1)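 Radiometric filter-binding kinase assays: enzyme preincubated 15 min with compound in 8 mM MOPS pH 7.0, 0.2 mM EDTA, 250 μM peptide substrate, 10 mM magnesium acetate, 10 μM [γ-33P]-ATP. Reaction started with Mg/ATP, run 40 min at room temperature, stopped with phosphoric acid; 33P incorporation read by scintillation counting. Other kinases by similar protocols.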

[2] = target: panel of human kinases (kinase named in endpoint) (Homo sapiens, UniProt O43781); conditions: 10 µM; read-out: Activity (%), DYRK3(h)
Method in brief: as §1

[3] = target: panel of human kinases (kinase named in endpoint) (Homo sapiens, UniProt P07333); conditions: 10 µM; read-out: Activity (%), Fms(h)
Method in brief: as §1

[4] = target: panel of human kinases (kinase named in endpoint) (Homo sapiens, UniProt P0C1S8); conditions: 10 µM; read-out: Activity (%), Wee1B(h)
Method in brief: as §1

[5] = target: panel of human kinases (kinase named in endpoint) (Homo sapiens, UniProt P21802, N549H); conditions: 10 µM; read-out: Activity (%), FGFR2(N549H)(h)
Method in brief: as §1

[6] = target: panel of human kinases (kinase named in endpoint) (Homo sapiens, UniProt P31749); conditions: 10 µM; read-out: Activity (%), PKBα(h)
Method in brief: as §1

[7] = target: panel of human kinases (kinase named in endpoint) (Homo sapiens, UniProt P37023); conditions: 10 µM; read-out: Activity (%), ALK1(h)
Method in brief: as §1

[8] = target: panel of human kinases (kinase named in endpoint) (Homo sapiens, UniProt P51955); conditions: 10 µM; read-out: Activity (%), NEK2(h)
Method in brief: as §1

[9] = target: panel of human kinases (kinase named in endpoint) (Homo sapiens, UniProt P53778); conditions: 10 µM; read-out: Activity (%), SAPK3(h)
Method in brief: as §1

[10] = target: panel of human kinases (kinase named in endpoint) (Homo sapiens, UniProt P54762); conditions: 10 µM; read-out: Activity (%), EphB1(h)
Method in brief: as §1

[11] = target: panel of human kinases (kinase named in endpoint) (Homo sapiens, UniProt Q05513); conditions: 10 µM; read-out: Activity (%), PKCζ(h)
Method in brief: as §1

[12] = target: panel of human kinases (kinase named in endpoint) (Homo sapiens, UniProt Q13627); conditions: 10 µM; read-out: Activity (%), DYRK1A(h)
Method in brief: as §1

[13] = target: panel of human kinases (kinase named in endpoint) (Homo sapiens, UniProt Q16513); conditions: 10 µM; read-out: Activity (%), PRK2(h)
Sequence of panel of human kinases (kinase named in endpoint) (Homo sapiens, UniProt Q16513) (Q16513 whole entry): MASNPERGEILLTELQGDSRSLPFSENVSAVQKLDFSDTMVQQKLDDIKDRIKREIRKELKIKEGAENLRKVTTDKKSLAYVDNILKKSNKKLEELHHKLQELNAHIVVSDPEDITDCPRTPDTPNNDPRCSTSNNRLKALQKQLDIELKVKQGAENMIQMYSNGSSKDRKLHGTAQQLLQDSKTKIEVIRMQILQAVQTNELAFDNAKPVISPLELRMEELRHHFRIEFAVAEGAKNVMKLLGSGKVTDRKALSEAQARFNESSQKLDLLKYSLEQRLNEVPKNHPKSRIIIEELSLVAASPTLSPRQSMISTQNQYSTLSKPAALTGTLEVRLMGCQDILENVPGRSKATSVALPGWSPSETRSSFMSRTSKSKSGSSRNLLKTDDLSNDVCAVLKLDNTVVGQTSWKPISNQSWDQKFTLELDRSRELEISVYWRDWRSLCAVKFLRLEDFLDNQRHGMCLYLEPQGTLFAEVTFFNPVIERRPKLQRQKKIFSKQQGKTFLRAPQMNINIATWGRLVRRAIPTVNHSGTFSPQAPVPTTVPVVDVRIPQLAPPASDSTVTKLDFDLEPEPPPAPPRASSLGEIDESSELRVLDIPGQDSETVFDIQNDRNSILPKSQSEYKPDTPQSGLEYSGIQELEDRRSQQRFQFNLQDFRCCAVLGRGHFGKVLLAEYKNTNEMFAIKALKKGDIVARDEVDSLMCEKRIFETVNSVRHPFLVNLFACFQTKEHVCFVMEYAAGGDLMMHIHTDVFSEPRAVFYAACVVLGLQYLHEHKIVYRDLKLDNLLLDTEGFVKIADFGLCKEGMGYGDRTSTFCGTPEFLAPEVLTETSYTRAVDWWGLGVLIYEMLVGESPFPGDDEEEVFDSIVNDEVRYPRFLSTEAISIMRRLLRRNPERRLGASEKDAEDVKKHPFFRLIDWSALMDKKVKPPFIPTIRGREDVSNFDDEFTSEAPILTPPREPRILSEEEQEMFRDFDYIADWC
Method in brief: as §1

[14] = target: panel of human kinases (kinase named in endpoint) (Homo sapiens, UniProt Q16539, T106M); conditions: 10 µM; read-out: Activity (%), SAPK2a(T106M)(h)
Method in brief: as §1

[15] = target: panel of human kinases (kinase named in endpoint) (Homo sapiens, UniProt Q16816); conditions: 10 µM; read-out: Activity (%), PhKγ1(h)
Method in brief: as §1

[16] = target: panel of human kinases (kinase named in endpoint) (Homo sapiens, UniProt Q5TCY1); conditions: 10 µM; read-out: Activity (%), TTBK1(h)
Method in brief: as §1

[17] = target: panel of human kinases (kinase named in endpoint) (Homo sapiens, UniProt Q7KZI7); conditions: 10 µM; read-out: Activity (%), PAR-1Bα(h)
Method in brief: as §1

[18] = target: panel of human kinases (kinase named in endpoint) (Homo sapiens, UniProt Q86UE8); conditions: 10 µM; read-out: Activity (%), TLK2(h)
Method in brief: as §1

[19] = target: panel of human kinases (kinase named in endpoint) (Homo sapiens, UniProt Q86V86); conditions: 10 µM; read-out: Activity (%), Pim-3(h)
Method in brief: as §1

[20] = target: panel of human kinases (kinase named in endpoint) (Homo sapiens, UniProt Q8IWQ3); conditions: 10 µM; read-out: Activity (%), BrSK2(h)
Method in brief: as §1

[21] = target: panel of human kinases (kinase named in endpoint) (Homo sapiens, UniProt Q8N4C8); conditions: 10 µM; read-out: Activity (%), MINK(h)
Sequence of panel of human kinases (kinase named in endpoint) (Homo sapiens, UniProt Q8N4C8) (Q8N4C8 whole entry): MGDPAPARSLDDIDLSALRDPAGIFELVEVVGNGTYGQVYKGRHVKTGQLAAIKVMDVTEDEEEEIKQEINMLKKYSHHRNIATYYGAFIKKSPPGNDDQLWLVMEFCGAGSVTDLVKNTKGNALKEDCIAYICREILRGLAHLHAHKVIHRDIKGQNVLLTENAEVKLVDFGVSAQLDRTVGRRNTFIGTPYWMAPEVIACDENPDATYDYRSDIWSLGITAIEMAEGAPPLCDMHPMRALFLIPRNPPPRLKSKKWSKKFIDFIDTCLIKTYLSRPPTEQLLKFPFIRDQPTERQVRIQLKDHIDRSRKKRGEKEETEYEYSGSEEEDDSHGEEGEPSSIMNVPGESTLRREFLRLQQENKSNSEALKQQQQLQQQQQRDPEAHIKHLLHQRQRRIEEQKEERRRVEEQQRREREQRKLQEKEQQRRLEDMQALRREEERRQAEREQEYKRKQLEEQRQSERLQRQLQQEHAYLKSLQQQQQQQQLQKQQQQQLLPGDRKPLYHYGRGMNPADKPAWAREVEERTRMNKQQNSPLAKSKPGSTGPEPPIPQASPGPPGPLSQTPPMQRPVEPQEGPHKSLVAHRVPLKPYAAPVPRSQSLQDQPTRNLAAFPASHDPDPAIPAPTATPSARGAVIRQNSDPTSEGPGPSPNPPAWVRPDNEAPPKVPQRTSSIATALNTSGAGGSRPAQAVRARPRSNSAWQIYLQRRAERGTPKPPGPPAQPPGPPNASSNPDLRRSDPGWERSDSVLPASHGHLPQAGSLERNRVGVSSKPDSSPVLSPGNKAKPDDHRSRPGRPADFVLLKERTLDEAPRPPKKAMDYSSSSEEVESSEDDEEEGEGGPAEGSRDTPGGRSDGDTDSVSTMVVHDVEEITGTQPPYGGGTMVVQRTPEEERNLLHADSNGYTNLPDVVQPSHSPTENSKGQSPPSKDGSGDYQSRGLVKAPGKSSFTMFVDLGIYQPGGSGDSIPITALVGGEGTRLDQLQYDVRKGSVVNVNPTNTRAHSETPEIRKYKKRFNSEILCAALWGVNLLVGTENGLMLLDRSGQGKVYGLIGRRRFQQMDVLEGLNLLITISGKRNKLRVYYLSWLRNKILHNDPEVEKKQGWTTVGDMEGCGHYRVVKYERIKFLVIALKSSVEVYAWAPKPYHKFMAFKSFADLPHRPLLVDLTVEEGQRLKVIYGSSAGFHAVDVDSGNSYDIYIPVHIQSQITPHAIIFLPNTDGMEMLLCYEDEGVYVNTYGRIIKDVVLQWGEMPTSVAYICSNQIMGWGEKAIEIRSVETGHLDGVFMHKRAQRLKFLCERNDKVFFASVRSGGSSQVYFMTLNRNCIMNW
Method in brief: as §1

[22] = target: panel of human kinases (kinase named in endpoint) (Homo sapiens, UniProt Q92519); conditions: 10 µM; read-out: Activity (%), TRB2(h)
Method in brief: as §1

[23] = target: panel of human kinases (kinase named in endpoint) (Homo sapiens, UniProt Q9H1R3); conditions: 10 µM; read-out: Activity (%), MYLK2(h)
Method in brief: as §1

[24] = target: panel of human kinases (kinase named in endpoint) (Homo sapiens, UniProt Q9H4A3); conditions: 10 µM; read-out: Activity (%), WNK1(h)
Sequence of panel of human kinases (kinase named in endpoint) (Homo sapiens, UniProt Q9H4A3) (Q9H4A3 whole entry): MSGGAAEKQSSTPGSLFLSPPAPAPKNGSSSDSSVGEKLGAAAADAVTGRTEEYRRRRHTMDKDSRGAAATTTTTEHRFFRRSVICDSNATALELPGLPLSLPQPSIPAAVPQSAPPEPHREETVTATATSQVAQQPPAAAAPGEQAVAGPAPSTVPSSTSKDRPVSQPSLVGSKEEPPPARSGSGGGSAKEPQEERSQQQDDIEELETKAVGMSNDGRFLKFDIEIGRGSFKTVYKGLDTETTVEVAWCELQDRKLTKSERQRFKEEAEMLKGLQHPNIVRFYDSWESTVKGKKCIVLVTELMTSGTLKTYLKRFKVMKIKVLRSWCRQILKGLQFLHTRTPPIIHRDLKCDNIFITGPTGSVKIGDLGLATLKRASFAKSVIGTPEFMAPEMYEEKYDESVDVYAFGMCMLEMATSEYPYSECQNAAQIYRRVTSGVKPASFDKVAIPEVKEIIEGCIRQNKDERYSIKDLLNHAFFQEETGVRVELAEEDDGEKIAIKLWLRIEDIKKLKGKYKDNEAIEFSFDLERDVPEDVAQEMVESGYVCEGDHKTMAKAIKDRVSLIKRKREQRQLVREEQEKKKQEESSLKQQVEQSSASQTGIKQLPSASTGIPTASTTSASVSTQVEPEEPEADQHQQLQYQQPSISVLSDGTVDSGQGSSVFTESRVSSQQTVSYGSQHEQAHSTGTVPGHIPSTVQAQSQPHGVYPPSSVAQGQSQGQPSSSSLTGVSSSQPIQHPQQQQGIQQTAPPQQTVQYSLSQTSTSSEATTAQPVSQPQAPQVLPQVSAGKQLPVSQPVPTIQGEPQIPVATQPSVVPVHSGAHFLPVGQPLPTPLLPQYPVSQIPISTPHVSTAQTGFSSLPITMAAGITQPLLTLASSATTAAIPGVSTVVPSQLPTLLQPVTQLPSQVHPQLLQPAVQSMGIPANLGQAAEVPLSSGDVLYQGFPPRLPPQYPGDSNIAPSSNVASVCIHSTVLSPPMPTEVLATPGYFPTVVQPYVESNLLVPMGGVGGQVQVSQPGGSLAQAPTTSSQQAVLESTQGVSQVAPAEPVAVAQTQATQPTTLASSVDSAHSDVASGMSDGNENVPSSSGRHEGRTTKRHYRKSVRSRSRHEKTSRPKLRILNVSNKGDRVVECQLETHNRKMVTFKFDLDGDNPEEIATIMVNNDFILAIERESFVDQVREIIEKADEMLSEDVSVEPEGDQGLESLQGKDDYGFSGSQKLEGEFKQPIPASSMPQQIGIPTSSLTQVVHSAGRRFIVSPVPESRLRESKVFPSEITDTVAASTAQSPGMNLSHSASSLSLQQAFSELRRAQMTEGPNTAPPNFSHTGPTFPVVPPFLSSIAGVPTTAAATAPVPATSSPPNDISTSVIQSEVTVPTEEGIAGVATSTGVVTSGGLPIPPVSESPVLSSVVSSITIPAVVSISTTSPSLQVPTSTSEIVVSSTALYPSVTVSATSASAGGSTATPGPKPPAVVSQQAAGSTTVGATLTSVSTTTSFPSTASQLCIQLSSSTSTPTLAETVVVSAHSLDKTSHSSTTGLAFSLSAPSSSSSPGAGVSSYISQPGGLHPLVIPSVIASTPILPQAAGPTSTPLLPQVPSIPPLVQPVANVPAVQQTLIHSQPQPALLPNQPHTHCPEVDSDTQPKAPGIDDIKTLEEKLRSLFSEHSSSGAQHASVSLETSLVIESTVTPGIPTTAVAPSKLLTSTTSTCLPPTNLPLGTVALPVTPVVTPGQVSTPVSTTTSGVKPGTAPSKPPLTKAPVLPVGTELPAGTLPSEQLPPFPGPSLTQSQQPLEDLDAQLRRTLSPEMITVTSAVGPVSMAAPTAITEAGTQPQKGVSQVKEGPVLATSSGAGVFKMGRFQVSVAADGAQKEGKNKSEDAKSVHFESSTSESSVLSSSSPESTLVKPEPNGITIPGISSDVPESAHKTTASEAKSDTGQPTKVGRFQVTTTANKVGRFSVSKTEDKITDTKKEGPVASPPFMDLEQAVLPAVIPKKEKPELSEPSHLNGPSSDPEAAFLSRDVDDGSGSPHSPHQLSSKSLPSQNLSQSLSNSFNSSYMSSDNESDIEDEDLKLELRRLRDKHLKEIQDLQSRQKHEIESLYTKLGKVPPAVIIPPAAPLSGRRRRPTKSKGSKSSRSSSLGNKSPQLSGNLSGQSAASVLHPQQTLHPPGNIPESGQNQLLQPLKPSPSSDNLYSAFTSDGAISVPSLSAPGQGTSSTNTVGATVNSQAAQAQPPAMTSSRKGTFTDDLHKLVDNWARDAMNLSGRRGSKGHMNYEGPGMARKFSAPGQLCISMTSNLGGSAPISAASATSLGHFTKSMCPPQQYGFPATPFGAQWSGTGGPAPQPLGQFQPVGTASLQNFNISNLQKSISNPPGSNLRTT
Method in brief: as §1

[25] = target: panel of human kinases (kinase named in endpoint) (Homo sapiens, UniProt Q9HAZ1); conditions: 10 µM; read-out: Activity (%), CLK4(h)
Method in brief: as §1

[26] = target: panel of human kinases (kinase named in endpoint) (Homo sapiens, UniProt Q9Y5S2); conditions: 10 µM; read-out: Activity (%), MRCKβ(h)
Method in brief: as §1

Sequence of panel of human kinases (kinase named in endpoint) (Homo sapiens, UniProt O00141) (O00141 whole entry): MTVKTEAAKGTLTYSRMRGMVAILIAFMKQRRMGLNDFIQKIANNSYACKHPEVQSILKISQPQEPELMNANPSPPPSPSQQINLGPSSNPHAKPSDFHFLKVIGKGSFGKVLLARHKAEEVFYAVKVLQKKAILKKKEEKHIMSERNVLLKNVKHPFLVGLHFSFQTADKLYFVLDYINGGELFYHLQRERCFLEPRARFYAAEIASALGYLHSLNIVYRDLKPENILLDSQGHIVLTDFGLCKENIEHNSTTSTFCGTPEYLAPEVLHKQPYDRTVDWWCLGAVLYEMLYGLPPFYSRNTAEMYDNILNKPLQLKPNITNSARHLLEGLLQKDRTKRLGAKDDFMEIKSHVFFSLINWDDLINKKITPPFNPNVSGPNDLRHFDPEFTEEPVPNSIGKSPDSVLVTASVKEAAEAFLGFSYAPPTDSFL

Structure (SMILES): CC(C)C(=O)Nc1nc2cc(-c3ccc4c(c3)c(C(=O)NC(C)c3ccccc3)cn4C)ccn2n1 (centres unmarked) [RI-962]
- activity at 10 µM [1]: 85%
- activity at 10 µM [2]: 83%
- activity at 10 µM [3]: 111%
- activity at 10 µM [4]: 95%
- activity at 10 µM [5]: 100%
- activity at 10 µM [6]: 80%
- activity at 10 µM [7]: 94%
- activity at 10 µM [8]: 100%
- activity at 10 µM [9]: 100%
- activity at 10 µM [10]: 111%
- activity at 10 µM [11]: 119%
- activity at 10 µM [12]: 96%
- activity at 10 µM [13]: 101%
- activity at 10 µM [14]: 86%
- activity at 10 µM [15]: 98%
- activity at 10 µM [16]: 92%
- activity at 10 µM [17]: 103%
- activity at 10 µM [18]: 78%
- activity at 10 µM [19]: 111%
- activity at 10 µM [20]: 110%
- activity at 10 µM [21]: 63%
- activity at 10 µM [22]: 91%
- activity at 10 µM [23]: 86%
- activity at 10 µM [24]: 75%
- activity at 10 µM [25]: 103%
- activity at 10 µM [26]: 79%

Source: publication PMC9653409, “Generative deep learning enables the discovery of a potent and selective RIPK1 inhibitor” (Nature Communications, 2022)
